From the NIST ThermoML archive (doi:10.1016/j.jct.2013.11.038)
Values joined by “and” are separate entries in the source; they are usually repeats but may differ in a detail not shown here. Equal entries are not always repeated.

Key:
[1] = Crystal; for vapor or sublimation pressure: Calculated from knudsen effusion weight loss; for Normal melting temperature: DTA
[2] = molar heat capacity at constant pressure; settings: 101.33 kPa, Crystal, Large sample (1 g) DSC
[3] = Molar enthalpy of transition or fusion; settings: Crystal; DSC

O=C1c2ccccc2-c2cccc3cccc1c23 [7H-benz[de]anthracen-7-one]
Settings	molar heat capacity at constant pressure [J/K/mol]	vapor or sublimation pressure
[1], 360.04 K	–	5.7e-06 kPa [middle of 4 runs]
[1], 369.32 K	–	1.67e-05 kPa [middle of 4 runs]
[1], 380.12 K	–	5.13e-05 kPa [middle of 6 runs]
[1], 390.32 K	–	0.0001425 kPa [middle of 6 runs]
[1], 400.17 K	–	0.0003806 kPa [middle of 7 runs]
[1], 410.37 K	–	0.0009607 kPa [middle of 6 runs]
[2], 300.47 K	257.2	–
[2], 305.43 K	262.2	–
[2], 310.4 K	265.7	–
[2], 315.36 K	270.5	–
[2], 320.32 K	275	–

Settings	Molar enthalpy of transition or fusion [kcal/mol]	Normal melting temperature [°C]
[1]	–	173.63
[3]	6.3	–

O=C(O)c1ccccc1 [benzoic acid]
Settings	molar heat capacity at constant pressure [J/K/mol]	vapor or sublimation pressure
[1], 269.3 K	–	2.1e-06 kPa and 2.2e-06 kPa
[1], 275.04 K	–	5.1e-06 kPa and 5e-06 kPa and 4.9e-06 kPa
[1], 281.33 K	–	1.24e-05 kPa [middle of 4 runs]
[1], 287.28 K	–	2.71e-05 kPa [middle of 7 runs]
[1], 293.19 K	–	5.78e-05 kPa [middle of 6 runs]
[1], 299.18 K	–	0.0001196 kPa [middle of 7 runs]
[1], 305.18 K	–	0.0002454 kPa [middle of 7 runs]
[1], 311.17 K	–	0.0004925 kPa [middle of 7 runs]
[1], 317.13 K	–	0.0009533 kPa [middle of 6 runs]
[2], 308.15 K	152.1	–
[2], 318.15 K	157.3	–
[2], 328.15 K	161.6	–
[2], 338.15 K	166.9	–
[2], 348.15 K	170.8	–
[2], 358.15 K	175.6	–
[2], 368.15 K	180	–
[2], 378.15 K	186.9	–

Settings	Molar enthalpy of transition or fusion [kcal/mol]	Normal melting temperature [°C]
[1]	–	122.22
[3]	4.28	–

O=C(Oc1ccccc1)Oc1ccccc1 [diphenyl carbonate]
[1]
Settings	vapor or sublimation pressure
302.18 K	2.22e-05 kPa [middle of 5 runs]
308.17 K	5.05e-05 kPa [middle of 5 runs]
314.32 K	0.0001144 kPa [middle of 7 runs]
320.25 K	0.0002424 kPa [middle of 7 runs]
326.23 K	0.0005075 kPa [middle of 7 runs]
332.24 K	0.001043 kPa [middle of 6 runs]

CCCCCCCCCCCCCCCCCC [octadecane]
Settings	molar heat capacity at constant pressure, 283.85 K [J/K/mol]	molar heat capacity at constant pressure, 285.5 K [J/K/mol]	molar heat capacity at constant pressure, 287.15 K [J/K/mol]	molar heat capacity at constant pressure, 288.81 K [J/K/mol]	molar heat capacity at constant pressure, 290.46 K [J/K/mol]	vapor or sublimation pressure, 286.34 K	vapor or sublimation pressure, 289.28 K	vapor or sublimation pressure, 292.27 K	vapor or sublimation pressure, 295.17 K	vapor or sublimation pressure, 297.99 K
[1]	–	–	–	–	–	2e-06 kPa [middle of 4 runs]	3.1e-06 kPa [middle of 4 runs]	5.9e-06 kPa [middle of 4 runs]	1.02e-05 kPa and 1.07e-05 kPa and 1.01e-05 kPa	1.9e-05 kPa [middle of 5 runs]
[2]	448.6	455.2	460.7	467.3	472.4	–	–	–	–	–

Settings	Molar enthalpy of transition or fusion [kcal/mol]	Normal melting temperature [°C]
[1]	–	28.31
[3]	14.7	–
